# In PMC6302136, “Quantitative Chemotherapeutic Profiling of Gynecologic Cancer Cell Lines Using Approved Drugs and Bioactive Compounds^” (Translational Oncology, 2018):
# Where two headings read alike, the source gives them in different places.
# Columns and labels:
# [1] = system: 11 gynecologic cancer cell lines; experiment: qHTS ATPlite cell viability, gynecologic cancer cell lines (ovarian, cervical, placental); assay type: cell-based, human; details: for IC50: Homo sapiens, 48 h; for Average SI: vs HEK 293T, >100 = inactive in HEK293T (efficacy <50%)
# Method: The ATPlite luminescence assay system assay kit was used to determine cell viability. The reagent was reconstituted and prepared as described by the manufacturer. To measure the cell death caused by the compounds, cells were cultured in 4 μl of media for 16 hours at 37°C with 5% CO2 in assay plates, followed by the addition of DMSO or 16 SOC chemotherapeutic compounds dissolved in DMSO. SOC compounds were dosed at 11 concentrations (1:3 dilution) in quadruplicate from 57.5 μM to 0.977 nM using the automated Wako 1536 Pin Tool workstation and incubated at 37°C with 5% CO2 for 24, 48, or 72 hours. Four microliters of ATPlite, the ATP monitoring reagent, was then added to each well of the assay plates using the Multidrop Combi reagent dispenser followed by incubation for 15 minutes at room temperature. The resulting luminescence was measured using the ViewLux plate reader. Data were normalized for each drug using the largest luminescence value as 100% full cell viability (0% cell killing) and to the smallest luminescence value 0% viability (100% cell killing).
# A qHTS [79], in which each compound was assayed in five concentrations (0.092, 0.46, 2.3, 11.5, and 57.5 μM), was performed for the primary compound screen using the NPC [80] and NPACT drug libraries at NCATS. The OBGYN cancer and HEK 293T control cells were seeded into 1536-well assay plates at 1000 cells per 4 μl/well and incubated at 37°C in 5% CO2 for 48 hours. The ATPlite assay to determine the IC50 values for each compound was conducted as described above. Plates were processed on the fully integrated Kalypsys robotic system.
# HDAC 1/2/3 = details: against HDAC 1/2/3 only; cited from earlier work
# [2] = read-out: Cmax, cited from earlier work
# HDAC 1/2/3/11 = details: inhibits only HDAC 1/2/3/11; cited from earlier work
# [3] = Pan-GYN cancer cell line killer
compound,measurement,setting,value
Nc1ccccc1NC(=O)c1ccc(CNC(=O)OCc2cccnc2)cc1 [Entinostat],IC50,"[1]; Pan-GYN cancer cell line killer, mean of all cell lines fulfilling criteria, read-out: Average IC50",7.11 ± 6.62 µM
same,Average SI,[1]; [3],>100
same,Average SI,"[1]; Pan-GYN cancer cell line killer, listed as entinostat",> 100
same,potency of HDAC inhibition,HDAC 1/2/3,submicromolar potency
same,Cmax,"[2]; humans, 15 mg",0.46 µM
Nc1ccccc1NC(=O)c1ccc(CNc2nccc(-c3cccnc3)n2)cc1 [Mocetinostat],IC50,[1]; read-out: Average IC50 (μM),2.76 ± 1.98 µM
same,Average SI,[1]; [3],>100
same,Average SI,"[1]; Pan-GYN cancer cell line killer, listed as mocetinostat",> 100
same,potency of HDAC inhibition,HDAC 1/2/3/11,low micromolar potency or below
same,Cmax,"[2]; 10 mg/kg, in humans",~21.4 µM
same,Cmax,"[2]; 40 mg/kg, in humans",75.7 µM
